Data on 18 compounds can be found in ChEMBL document CHEMBL5055646, “Discovery of novel BTK PROTACs for B-Cell lymphomas” (Eur J Med Chem, 2021).

pIC50: −log10 of the molar value.

Series [1] addresses T1, Tyrosine-protein kinase BTK (Homo sapiens, UniProt Q06187). The series is described as follows: Inhibition of full length N-terminal GST fusion tagged human BTK expressed in baculovirus expression system at 500 nM using FAM-P2 peptide solution as substrate incubated for 10 mins in presence of ATP by microplate reader assay.
The target of series [2] is T2, Protein cereblon/Tyrosine-protein kinase BTK (Homo sapiens, UniProt Q06187+Q96SW2). Description: Protac activity at BTK/CRBN in human JeKo-1 cells assessed as induction of BTK degradation at 100 nM measured after 1 hr by Western blot analysis relative to control. Format: cell-based. In general terms: In western blotting, separated proteins are transferred to a membrane and probed.
Target sequence in this assay (Q06187 2-659 limits assumed): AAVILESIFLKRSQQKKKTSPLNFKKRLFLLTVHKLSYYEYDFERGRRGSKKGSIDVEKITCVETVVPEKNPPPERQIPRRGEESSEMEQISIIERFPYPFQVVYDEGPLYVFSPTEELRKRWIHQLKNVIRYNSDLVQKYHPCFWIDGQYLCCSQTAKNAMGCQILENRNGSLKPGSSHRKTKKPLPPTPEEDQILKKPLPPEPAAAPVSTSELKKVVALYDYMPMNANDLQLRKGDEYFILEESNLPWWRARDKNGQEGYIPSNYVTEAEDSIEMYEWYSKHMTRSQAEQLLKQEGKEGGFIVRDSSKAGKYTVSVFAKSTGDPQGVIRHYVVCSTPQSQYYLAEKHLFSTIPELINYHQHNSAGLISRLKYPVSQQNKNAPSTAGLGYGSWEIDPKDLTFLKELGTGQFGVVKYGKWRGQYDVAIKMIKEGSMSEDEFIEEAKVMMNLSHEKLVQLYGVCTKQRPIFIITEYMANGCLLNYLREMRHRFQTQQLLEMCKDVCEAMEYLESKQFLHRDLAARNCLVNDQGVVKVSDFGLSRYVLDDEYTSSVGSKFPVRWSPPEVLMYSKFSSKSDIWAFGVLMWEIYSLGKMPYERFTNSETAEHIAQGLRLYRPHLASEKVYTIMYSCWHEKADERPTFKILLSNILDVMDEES
Target sequence in this assay (Q96SW2 whole entry partner): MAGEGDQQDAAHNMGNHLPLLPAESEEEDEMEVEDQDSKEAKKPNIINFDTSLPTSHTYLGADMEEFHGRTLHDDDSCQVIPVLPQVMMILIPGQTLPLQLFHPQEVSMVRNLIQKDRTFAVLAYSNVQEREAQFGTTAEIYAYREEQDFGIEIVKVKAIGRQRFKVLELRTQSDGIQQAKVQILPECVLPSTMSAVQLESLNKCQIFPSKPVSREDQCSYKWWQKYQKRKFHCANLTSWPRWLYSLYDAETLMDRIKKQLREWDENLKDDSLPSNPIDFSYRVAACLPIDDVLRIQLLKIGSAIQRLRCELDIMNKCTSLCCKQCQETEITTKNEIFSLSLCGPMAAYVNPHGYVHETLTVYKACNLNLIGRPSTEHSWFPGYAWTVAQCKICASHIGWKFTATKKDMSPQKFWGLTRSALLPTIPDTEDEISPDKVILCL

For series [3], the target named is T1, Tyrosine-protein kinase BTK. The series is described as follows: Inhibition of full length N-terminal GST fusion tagged human BTK expressed in baculovirus expression system using FAM-P2 peptide solution as substrate incubated for 10 mins in presence of ATP by microplate reader assay.
Series [4] has the same target. The series is described as follows: Inhibition of full length N-terminal GST fusion tagged human BTK expressed in baculovirus expression system at 50 nM using FAM-P2 peptide solution as substrate incubated for 10 mins in presence of ATP by microplate reader assay relative to control.
Series [5] has as its target T2, Protein cereblon/Tyrosine-protein kinase BTK. Description: Protac activity at BTK/CRBN in human JeKo-1 cells assessed as maximal BTK degradation measured after 1 hr by Western blot analysis relative to control. Format: cell-based.
Target sequence in this assay (Q06187 2-659 limits assumed): as the sequence (Q06187 2-659 limits assumed) above
Target sequence in this assay (Q96SW2 whole entry partner): as the sequence (Q96SW2 whole entry partner) above
Series [6] shares this target. The series is described as follows: Protac activity at BTK/CRBN in human JeKo-1 cells assessed as induction of BTK degradation measured after 1 hr by Western blot analysis. It is filed as cell-based.
Target sequence in this assay (Q06187 whole entry): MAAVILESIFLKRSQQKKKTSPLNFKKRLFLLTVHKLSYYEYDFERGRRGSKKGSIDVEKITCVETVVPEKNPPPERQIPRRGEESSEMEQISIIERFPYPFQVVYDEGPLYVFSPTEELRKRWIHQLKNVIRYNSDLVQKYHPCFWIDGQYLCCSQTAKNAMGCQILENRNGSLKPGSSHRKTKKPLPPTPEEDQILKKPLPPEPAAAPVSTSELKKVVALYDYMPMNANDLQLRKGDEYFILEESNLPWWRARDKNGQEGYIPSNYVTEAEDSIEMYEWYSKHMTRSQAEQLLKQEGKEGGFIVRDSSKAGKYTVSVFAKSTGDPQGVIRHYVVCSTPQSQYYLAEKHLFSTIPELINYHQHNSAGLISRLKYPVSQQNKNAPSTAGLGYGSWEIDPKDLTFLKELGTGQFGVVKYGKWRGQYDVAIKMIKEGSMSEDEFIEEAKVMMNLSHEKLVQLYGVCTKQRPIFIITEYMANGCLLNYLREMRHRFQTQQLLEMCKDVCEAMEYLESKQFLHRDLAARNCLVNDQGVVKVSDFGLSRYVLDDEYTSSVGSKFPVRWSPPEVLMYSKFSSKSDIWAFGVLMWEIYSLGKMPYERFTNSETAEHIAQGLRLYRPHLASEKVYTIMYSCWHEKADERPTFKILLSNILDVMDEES
Target sequence in this assay (Q96SW2 whole entry): as the sequence (Q96SW2 whole entry partner) above
Series [7] has as its system Protein cereblon/Tyrosine-protein kinase BTK (Homo sapiens), Q06187+Q96SW2 [C481S]. The series is described as follows: Protac activity at BTK C481S mutant/CRBN in human TMD8 cells assessed as maximal BTK degradation measured after 1 hr by Western blot analysis relative to control. Format: cell-based.
The target of series [8] is Protein cereblon/Tyrosine-protein kinase BTK (Homo sapiens, UniProt Q06187+Q96SW2, C481S). The series is described as follows: Protac activity at BTK C481S mutant/CRBN in human TMD8 cells assessed as induction of BTK degradation measured after 1 hr by Western blot analysis. It is filed as cell-based.
Protein cereblon/Tyrosine-protein kinase BTK (Homo sapiens, UniProt Q06187+Q96SW2, C481S), sequence (Q06187 2-659 C481S limits assumed, stated change not applied): as the sequence (Q06187 2-659 limits assumed) above, with C480S counted along it
Protein cereblon/Tyrosine-protein kinase BTK (Homo sapiens, UniProt Q06187+Q96SW2, C481S), sequence (Q96SW2 whole entry, stated change not applied): as the sequence (Q96SW2 whole entry partner) above
A short description of series [9]: Half life in human plasma. It is filed as ADME, cell-free.
In series [10] the test system is TMD8. Description: cells. Particulars: Homo sapiens, TMD8, 72 h.
Series [11] deals with TMD8. Description: cells. The settings on record: Homo sapiens, TMD8, 72 h. This is another data set of the same source.
A short description of series [12]: Apparent permeability across apical to basolateral side in human Caco-2 cells. Format: ADME, cell-based. In general terms: Passage across Caco-2 layers is used to estimate intestinal permeability.
Series [13] is described as follows: Efflux ratio of apparent permeability from basolateral to apical side over apical to basolateral side in human Caco-2 cells. It is filed as ADME, cell-based.
Series [14] in a line: Apparent permeability across basolateral to apical side in human Caco-2 cells. Format: ADME, cell-based.

T1 sequence (Q06187 whole entry, the tested form may be a part): as the sequence (Q06187 whole entry) above

With `O=C1CCC(N2C(=O)c3cccc(NCCCCNC(=O)N[C@H]4CC[C@@H](Nc5ncnc6[nH]cc(C(=O)c7ccc(Oc8ccccc8)cc7Cl)c56)CC4)c3C2=O)C(=O)N1` (stereo partly drawn), the results for the inhibition in series [1] and in series [4] were 96.2% and 75%, respectively. Moreover, the Activity in series [2] came out at 6.8%. In series [3], the pIC50 – broadly, −log10 of the IC50, conventionally taken in molar units – was 7.64.
`O=C(CNc1ncnc2[nH]cc(C(=O)c3ccc(Oc4ccccc4)cc3Cl)c12)NCCOCCOCCOCCNc1cccc2c1C(=O)N(C1CCC(=O)NC1=O)C2=O` (stereo not drawn): the inhibition – broadly, the share of the control response that was lost under treatment – stood at 21.6% in series [1] and 8.6% in series [4]. For the same compound, the %max in [5] was 67.1%. Besides, the DC50 – broadly, the concentration giving 50% degradation – in series [6] stood at 0.0285 µM. Further, the Activity in series [2] turned out to be 56.2%. In series [3], the pIC50 is 5.71.
Turning to `O=C1CCC(N2C(=O)c3cccc(NCCOCCOCCNC(=O)N[C@H]4CC[C@@H](Nc5ncnc6[nH]cc(C(=O)c7ccc(Oc8ccccc8)cc7Cl)c56)CC4)c3C2=O)C(=O)N1` (stereo partly drawn), the results for the inhibition in [1] and in series [4] were 97.4% and 82.1%, respectively. Moreover, in series [2], the Activity amounted to 22.8%. Also, in [3], the pIC50 is 7.81.
`O=C(CNc1ncnc2[nH]cc(C(=O)c3ccc(Oc4ccccc4)cc3Cl)c12)NCCOCCOCCOCCOCCOCCNc1cccc2c1C(=O)N(C1CCC(=O)NC1=O)C2=O` (stereo not drawn): the inhibition in series [1] stood at 35.5%; in series [4], 5.9%. Further, the %max in [7] turned out to be 88.4%; in [5], 72.4%. The figures for the DC50 in series [6] and in [8] were 0.0081 µM and 0.0804 µM, respectively. Also, in series [2], the Activity stood at 64.2%. Further, the figures for the pIC50 (in series [3]; with TMD8 [10]; in the series with TMD8 [11]) were 5.92, 7.20 and 5.77, respectively. In series [9], the half-life (usually the time in which the quantity being followed falls by half) came to 5.34 h.
In the case of `O=C(CNc1ncnc2[nH]cc(C(=O)c3ccc(Oc4ccccc4)cc3Cl)c12)NCCOCCOCCOCCOCCOCCOCCOCCNc1cccc2c1C(=O)N(C1CCC(=O)NC1=O)C2=O` (stereo not drawn), the figures for the inhibition in [1] and in [4] were 39% and 7%, respectively. Further, in [2], the Activity was 14.7%.
Consider `O=C(CNc1ncnc2[nH]cc(C(=O)c3ccc(Oc4ccccc4)cc3Cl)c12)NCCOCCOCCOCCOCCNc1cccc2c1C(=O)N(C1CCC(=O)NC1=O)C2=O` (stereo not drawn), for which the inhibition in series [1] turned out to be 35.6%; in series [4], 5.6%. For the same compound, the %max worked out at 68.6% in series [7] and 66.5% in [5]. The figures for the DC50 in [6] and in [8] were 0.0094 µM and 0.0527 µM, respectively. In addition, in [2], the Activity is 55.6%. The pIC50 in series [3] was 5.66.
For `O=C(CNc1ncnc2[nH]cc(C(=O)c3ccc(Oc4ccccc4)cc3Cl)c12)NCCOCCOCCOCCOCCOCCOCCNc1cccc2c1C(=O)N(C1CCC(=O)NC1=O)C2=O` (stereo not drawn), the inhibition came to 42.5% in series [1] and 10% in series [4]. The %max in series [7] came out at 84.8%; in series [5], 92.4%. Also, the DC50 in series [6] stood at 0.0083 µM; in series [8], 0.0523 µM. Also, the Activity in series [2] is 78.7%. For the same compound, the pIC50 in series [3] is 5.86; with TMD8 [10] it was 6.98; with TMD8 [11], 6.12.
With `N[C@H]1CC[C@@H](Nc2ncnc3[nH]cc(C(=O)c4ccc(Oc5ccccc5)cc4Cl)c23)CC1`, the results for the inhibition in [1] and in series [4] were 99.5% and 94.2%, respectively. In addition, the pIC50 in [3] was 8.37.
Regarding `O=C1CCC(N2C(=O)c3cccc(NCCOCCOCCOCCOCCOCCNC(=O)N[C@H]4CC[C@@H](Nc5ncnc6[nH]cc(C(=O)c7ccc(Oc8ccccc8)cc7Cl)c56)CC4)c3C2=O)C(=O)N1` (stereo partly drawn), the figures for the inhibition in series [1] and in series [4] were 90% and 58.4%, respectively. Also, the %max in series [7] turned out to be 90.7%; in [5] it was 93%. In addition, the Papp A→B – broadly, how fast a substance crosses the layer from the apical side – in series [12] was < 53 nm/s. Also, the DC50 in [6] came out at 0.0419 µM; in series [8] it was 0.0429 µM. Also, in series [13], the efflux ratio (usually a quotient of directional permeabilities that is used to spot active efflux) was > 1.4. Further, the Papp B→A – broadly, the apparent permeability from the basolateral to the apical side of a cell layer – in series [14] worked out at 75 nm/s. In series [2], the Activity came out at 93.7%. In addition, the figures for the pIC50 (in series [3]; with TMD8 [10]; in the series on TMD8 [11]) were 7.25, 7.34 and 6.60, respectively. This compound came in with a half-life in series [9] of 3.55 h.
`O=C1CCC(N2C(=O)c3cccc(NCCOCCOCCOCCNC(=O)N[C@H]4CC[C@@H](Nc5ncnc6[nH]cc(C(=O)c7ccc(Oc8ccccc8)cc7Cl)c56)CC4)c3C2=O)C(=O)N1` (stereo partly drawn): the inhibition in series [1] amounted to 95.2%; in series [4], 73.5%. Moreover, the results for the %max in series [7] and in [5] were 84.3% and 76.9%, respectively. For the same compound, the DC50 in [6] was determined as 0.0323 µM; in series [8], 0.0301 µM. The Activity in series [2] is 44.1%. Also, in series [3], the pIC50 was 7.65.
For the compound `CCNC(=O)CNc1ncnc2[nH]cc(C(=O)c3ccc(Oc4ccccc4)cc3Cl)c12`, the pIC50 in series [3] is 6.39.
Take `CCNC(=O)N[C@H]1CC[C@@H](Nc2ncnc3[nH]cc(C(=O)c4ccc(Oc5ccccc5)cc4Cl)c23)CC1`: the pIC50 in series [3] was 7.60.
In the case of `O=C1CCC(N2C(=O)c3cccc(NCCOCCOCCOCCOCCNC(=O)N[C@H]4CC[C@@H](Nc5ncnc6[nH]cc(C(=O)c7ccc(Oc8ccccc8)cc7Cl)c56)CC4)c3C2=O)C(=O)N1` (stereo partly drawn), the inhibition in [1] came to 74.9%; in series [4], 32.6%. Also, the results for the %max in series [7] and in series [5] were 83.5% and 78%, respectively. Moreover, the DC50 stood at 0.0121 µM in series [6] and 0.0379 µM in [8]. Besides, the Activity in series [2] turned out to be 88.8%. In addition, the pIC50 was 7.33 in [3], 7.40 in the series with TMD8 [10] and 6.54 in the series on TMD8 [11].
Turning to `O=C(CNc1ncnc2[nH]cc(C(=O)c3ccc(Oc4ccccc4)cc3Cl)c12)NCCCCNc1cccc2c1C(=O)N(C1CCC(=O)NC1=O)C2=O` (stereo not drawn), the inhibition was determined as 9.3% in series [1] and 1.8% in [4]. The Activity in [2] is 24.9%.
As for `O=C(CNc1ncnc2[nH]cc(C(=O)c3ccc(Oc4ccccc4)cc3Cl)c12)NCCNc1cccc2c1C(=O)N(C1CCC(=O)NC1=O)C2=O` (stereo not drawn), the inhibition in series [1] worked out at 10.9%; in series [4], 2.4%.
On to `CCOC(=O)CNc1ncnc2[nH]cc(C(=O)c3ccc(Oc4ccccc4)cc3Cl)c12`, for which the inhibition in series [1] came to 10.9%; in series [4], 4.9%. In addition, in [3], the pIC50 was 5.22.
Take `O=C(CNc1ncnc2[nH]cc(C(=O)c3ccc(Oc4ccccc4)cc3Cl)c12)NCCOCCOCCNc1cccc2c1C(=O)N(C1CCC(=O)NC1=O)C2=O` (stereo not drawn): the inhibition turned out to be 21.5% in [1] and 7.5% in series [4]. The Activity in [2] was found to be 33%. Besides, the pIC50 in series [3] is 5.42.
For `O=C(O)CNc1ncnc2[nH]cc(C(=O)c3ccc(Oc4ccccc4)cc3Cl)c12`, the inhibition is 85.1% in series [1] and 44.2% in series [4]. Also, the pIC50 in [3] was 7.09.
